Test results taken from the supplement of paper PMC7214452.

Key:
Assay in all cases: normalized area under the dose-response curve (viability relative to DMSO control) (fraction); higher = less sensitive (more viable cells)
Details in all cases: exposure time not given
L363 (cancer type: MM) = test system: L363 (cancer type: MM)
Protocol: (§1)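 25 myeloma and 15 non-Hodgkin lymphoma cell lines were exposed to each of 76 drugs as 7-point log dilutions (0.01 nM–10 µM) in duplicate. Viability was read with CellTiter-Glo and normalised to DMSO (0.1%) and staurosporine (10 µM) plate controls. Normalised AUC was calculated by the trapezoidal method relative to the negative control.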

My-La (cancer type: TCL) = test system: My-La (cancer type: TCL)
Protocol: as §1

[1] = test system: KMS28PE (cancer type: MM)
Protocol: as §1

[2] = test system: SR-786 (cancer type: TCL)
Protocol: as §1

[3] = test system: KMS28BM (cancer type: MM)
Protocol: as §1

[4] = test system: Mino (cancer type: Mantle)
Protocol: as §1

[5] = test system: OCI-MY5 (cancer type: MM)
Protocol: as §1

[6] = test system: SU-DHL6 (cancer type: DLBCL)
Protocol: as §1

[7] = test system: Granta-519 (cancer type: Mantle)
Protocol: as §1

EJM (cancer type: MM) = test system: EJM (cancer type: MM)
Protocol: as §1

[8] = test system: Karpas-299 (cancer type: TCL)
Protocol: as §1

OPM2 (cancer type: MM) = test system: OPM2 (cancer type: MM)
Protocol: as §1

MM1.R (cancer type: MM) = test system: MM1.R (cancer type: MM)
Protocol: as §1

KMS11 (cancer type: MM) = test system: KMS11 (cancer type: MM)
Protocol: as §1

U266 (cancer type: MM) = test system: U266 (cancer type: MM)
Protocol: as §1

MM1.S (cancer type: MM) = test system: MM1.S (cancer type: MM)
Protocol: as §1

[9] = test system: OCI-LY1 (cancer type: DLBCL)
Protocol: as §1

SKMM2 (cancer type: MM) = test system: SKMM2 (cancer type: MM)
Protocol: as §1

KMS34 (cancer type: MM) = test system: KMS34 (cancer type: MM)
Protocol: as §1

[10] = test system: NCI-H929 (cancer type: MM)
Protocol: as §1

Se-Ax (cancer type: TCL) = test system: Se-Ax (cancer type: TCL)
Protocol: as §1

XG2 (cancer type: MM) = test system: XG2 (cancer type: MM)
Protocol: as §1

[11] = test system: OCI-MY5/CRBN (cancer type: MM)
Protocol: as §1

[12] = test system: SU-DHL1 (cancer type: TCL)
Protocol: as §1

[13] = test system: HuT 78 (cancer type: TCL)
Protocol: as §1

[14] = test system: OCI-LY19 (cancer type: DLBCL)
Protocol: as §1

LP1 (cancer type: MM) = test system: LP1 (cancer type: MM)
Protocol: as §1

[15] = test system: SU-DHL2 (cancer type: DLBCL)
Protocol: as §1

[16] = test system: OCI-MY7 (cancer type: MM)
Protocol: as §1

[17] = test system: RPMI 8226 (cancer type: MM)
Protocol: as §1

KMS26 (cancer type: MM) = test system: KMS26 (cancer type: MM)
Protocol: as §1

[18] = test system: KMS12PE (cancer type: MM)
Protocol: as §1

FR4 (cancer type: MM) = test system: FR4 (cancer type: MM)
Protocol: as §1

JJN3 (cancer type: MM) = test system: JJN3 (cancer type: MM)
Protocol: as §1

[19] = test system: OCI-MY5/Vec (cancer type: MM)
Protocol: as §1

[20] = test system: OCI-LY3 (cancer type: DLBCL)
Protocol: as §1

KMS18 (cancer type: MM) = test system: KMS18 (cancer type: MM)
Protocol: as §1

[21] = test system: JeKo-1 (cancer type: Mantle)
Protocol: as §1

AMO1 (cancer type: MM) = test system: AMO1 (cancer type: MM)
Protocol: as §1

[22] = test system: JVM2 (cancer type: Mantle)
Protocol: as §1

Row | Compound | normalized area under the dose-response curve (L363 (cancer type: MM)) | normalized area under the dose-response curve (My-La (cancer type: TCL)) | normalized area under the dose-response curve [1] | normalized area under the dose-response curve [2] | normalized area under the dose-response curve [3] | normalized area under the dose-response curve [4] | normalized area under the dose-response curve [5] | normalized area under the dose-response curve [6] | normalized area under the dose-response curve [7] | normalized area under the dose-response curve (EJM (cancer type: MM)) | normalized area under the dose-response curve [8] | normalized area under the dose-response curve (OPM2 (cancer type: MM)) | normalized area under the dose-response curve (MM1.R (cancer type: MM)) | normalized area under the dose-response curve (KMS11 (cancer type: MM)) | normalized area under the dose-response curve (U266 (cancer type: MM)) | normalized area under the dose-response curve (MM1.S (cancer type: MM)) | normalized area under the dose-response curve [9] | normalized area under the dose-response curve (SKMM2 (cancer type: MM)) | normalized area under the dose-response curve (KMS34 (cancer type: MM)) | normalized area under the dose-response curve [10] | normalized area under the dose-response curve (Se-Ax (cancer type: TCL)) | normalized area under the dose-response curve (XG2 (cancer type: MM)) | normalized area under the dose-response curve [11] | normalized area under the dose-response curve [12] | normalized area under the dose-response curve [13] | normalized area under the dose-response curve [14] | normalized area under the dose-response curve (LP1 (cancer type: MM)) | normalized area under the dose-response curve [15] | normalized area under the dose-response curve [16] | normalized area under the dose-response curve [17] | normalized area under the dose-response curve (KMS26 (cancer type: MM)) | normalized area under the dose-response curve [18] | normalized area under the dose-response curve (FR4 (cancer type: MM)) | normalized area under the dose-response curve (JJN3 (cancer type: MM)) | normalized area under the dose-response curve [19] | normalized area under the dose-response curve [20] | normalized area under the dose-response curve (KMS18 (cancer type: MM)) | normalized area under the dose-response curve [21] | normalized area under the dose-response curve (AMO1 (cancer type: MM)) | normalized area under the dose-response curve [22]
1 | CO[C@H]1C[C@@H]2CC[C@@H](C)[C@@](O)(O2)C(=O)C(=O)N2CCCC[C@H]2C(=O)O[C@H]([C@H](C)C[C@@H]2CC[C@@H](OC(=O)C(C)(CO)CO)[C@H](OC)C2)CC(=O)[C@H](C)/C=C(\C)[C@@H](O)[C@@H](OC)C(=O)[C@H](C)C[C@H](C)/C=C/C=C/C=C/1C [Temsirolimus] | 0.7 | 0.764 | 0.696 | 0.745 | 0.859 | 0.691 | 0.775 | 0.72 | 0.695 | 0.823 | 0.585 | 0.749 | 0.68 | 0.752 | 0.752 | 0.63 | 0.685 | 0.912 | 0.559 | 0.74 | 0.663 | 0.725 | 0.772 | 0.71 | 0.722 | 0.697 | 0.746 | 0.576 | 0.79 | 0.763 | 0.978 | 0.69 | 0.789 | 0.774 | 0.884 | 0.648 | 0.754 | 0.744 | 0.695 | 0.559
2 | C[C@@H]1CCN(C(=O)CC#N)C[C@@H]1N(C)c1ncnc2[nH]ccc12 [Tofacitinib] | 0.904 | 0.877 | 0.936 | 0.856 | 0.962 | 0.957 | 0.944 | 0.969 | 0.94 | 0.941 | 0.891 | 0.938 | 0.92 | 0.933 | 0.874 | 0.85 | 0.994 | 0.978 | 0.89 | 0.92 | 0.929 | 0.838 | 0.97 | 0.97 | 0.879 | 0.996 | 0.858 | 0.93 | 0.95 | 1 | 0.957 | 1.01 | 1 | 0.966 | 1.02 | 0.952 | 1.01 | 1.05 | 0.901 | 0.931
3 | CC(=O)Nc1cccc(-n2c(=O)n(C3CC3)c(=O)c3c(Nc4ccc(I)cc4F)n(C)c(=O)c(C)c32)c1 [Trametinib] | 0.835 | 0.868 | 0.867 | 0.877 | 0.861 | 0.948 | 0.764 | 0.841 | 0.913 | 0.838 | 0.794 | 0.719 | 0.67 | 0.869 | 0.922 | 0.71 | 0.908 | 0.964 | 0.681 | 0.6 | 0.713 | 0.727 | 0.969 | 0.501 | 0.672 | 0.898 | 0.64 | 0.77 | 0.67 | 0.909 | 0.774 | 0.8 | 0.967 | 0.858 | 0.943 | 0.865 | 0.779 | 0.986 | 0.575 | 0.561
4 | COc1cc2/c(=N/c3ccc(Br)cc3F)nc[nH]c2cc1OCC1CCN(C)CC1 [Vandetanib] | 0.795 | 0.906 | 0.844 | 0.961 | 0.985 | 0.921 | 0.784 | 0.96 | 0.892 | 0.672 | 0.896 | 0.861 | 0.87 | 0.777 | 0.746 | 0.86 | 0.918 | 0.963 | 0.623 | 0.87 | 0.784 | 0.726 | 0.95 | 0.77 | 0.892 | 0.969 | 0.684 | 0.911 | 0.96 | 0.905 | 0.962 | 0.95 | 0.922 | 0.873 | 0.908 | 0.993 | 0.774 | 0.937 | 0.767 | 0.773
